In one assay the target is T1, β1c (Homo sapiens, UniProt P28072+Q99436).
T1 construct: protease activity associated with the proteasome complex in cultured cells; endogenous in cells; host or cells: Ramos cells
As to the kind of experiment: Cell-Based Proteasome Activity/Selectivity Assay (Ramos cells), substrate (LLE)2 Rh110. The conditions noted are these: highest concentration tested 20 μM. An excerpt:
(§1) Cell-Based Proteasome Activity/Selectivity Assay
(§2) The Cell-Based Proteasome subunit activity/selectivity assay was a panel of 5 fluorogenic assays that independently measured the activity of β5c or β5i (chymotrypsin-like activity), β2c/2i (trypsin-like), and β1c or β1i (caspase-like) protease activity associated with the proteasome complex in cultured cells. Specifically, the following substrates were used for respective subunit activities: β1i: (PAL)2Rh110, β1c: (LLE)2 Rh110, β2c/2i: (KQL)2Rh110, β5c: (WLA)2Rh110, β5i: (ANW)2Rh110. The following procedure was followed:
(§3) Cell preparation: Plated 25 μl of Ramos cells (2×10^6/ml in DPBS) into half area plate (PerkinElmer Cat 6005569) to final 5×10^4 cells/well. Added 0.5 μl of 100×4-fold serial diluted test compounds or DMSO to each well. Highest concentration of compound tested was 20 μM, thus compound serial dilution started from […]. Incubated for 30 minutes at 37° C. Then equilibrated at room temperature for 15 minutes. Added 25 μl of 2× reaction mix consisting of 0.025% digitonin, 20 μM of each substrates and 0.5M sucrose in DPBS. Shaked for one minute @ 700 rpm. Incubated for 120 min at room temperature. Then read the plates with an Envision multilabel plate reader (PerkinElmer) with 500 nm excitation/519 nm emission.

The subject of assay [1] is IP10 level in PBMCs stimulated with CpG Type A. Kind of assay: PBMC IP-10 Assay. It is filed as cell-based. Particulars: CpG Type A 2.5 μM. How it is done: PBMCs were isolated from whole blood as follows: Blood was collected in a sterile environment in heparinized tubes. Blood was diluted with an equal volume PBS/2% FCS and 30 ml of this mixture was added to ACCUSPIN tubes containing 15 ml Histopaque-1077 already centrifuged at 800 g for 30 seconds and warmed up at room temperature. The tubes were then centrifuged at 800 g for 20 minutes at room temperature with no brake. The mononuclear band, just above the polyethylene frit, was removed by Pasteur pipet. These mononuclear cells were washed three times with sterile PBS, counted, and resuspended in RPMI 1640 supplemented with 10% heat inactivated fetal calf serum, 10 mM HEPES, 1 mM sodium pyruvate, penicillin (50 U/ml), streptomycin (50 μg/ml) and glutamine (2 mM) to approximately 1.5×10^6/ml. Approximately 2×10^5 cells/well were plated in 96 well tissue culture plates (BD Falcon 353072), and preincubated 60 mi/37° C. with a titration of compounds, in a final concentration of 1% DMSO. Cells were then stimulated with CpG Type A (Invivogen, Cat #tlrl-2216; ODN 2216) at a final concentration of 2.5 μM. Cells were incubated overnight, and supernatants were removed. PBMC viability of cells remaining in the well was measured with ATPlite luminescence assay (Perkin-Elmer) per the manufacturer's instructions. Luminescence was measured on the Perkin-Elmer Envision, using the luminescence filter. IP10 level was measured with CXCL10/IP10 AlphaLISA kit (Perkin-Elmer) per the manufacturer's instructions, except halving all volumes. Fluorescence was measured on the Envision Multilabel plate reader, using the AlphaScreen standard settings.

The target of another assay is T2, β5c (Homo sapiens, UniProt P20618+P28074).
T2 construct: protease activity associated with the proteasome complex in cultured cells; endogenous in cells; host or cells: Ramos cells
Kind of assay: Cell-Based Proteasome Activity/Selectivity Assay (Ramos cells), substrate (WLA)2Rh110. Particulars: highest concentration tested 20 μM.
Excerpt: as §1, §2, §3

The target of a further assay is T3, β5i (Homo sapiens, UniProt P20618+P28062).
T3 construct: protease activity associated with the proteasome complex in cultured cells; endogenous in cells; host or cells: Ramos cells
Kind of assay: Cell-Based Proteasome Activity/Selectivity Assay (Ramos cells), substrate (ANW)2Rh110. Particulars: highest concentration tested 20 μM, read-out: Ic50 ramos:ac-(anw)2-r110.
Excerpt: as §1, §2, §3

In another assay the target is T4, β1i (Homo sapiens, UniProt P28065+P40306).
T4 construct: protease activity associated with the proteasome complex in cultured cells; endogenous in cells; host or cells: Ramos cells
As to the kind of experiment: Cell-Based Proteasome Activity/Selectivity Assay (Ramos cells), substrate (PAL)2Rh110. The conditions noted are these: highest concentration tested 20 μM.
Excerpt: as §1, §2, §3

A further assay deals with β2c/2i. As to the kind of experiment: Cell-Based Proteasome Activity/Selectivity Assay (Ramos cells), substrate (KQL)2Rh110. The conditions noted are these: highest concentration tested 20 μM.
Excerpt: as §1, §2, §3

Some results are limits rather than exact numbers.

For the compound `CCCCC(NC(=O)[C@H](COC)NC(=O)[C@H](C)NC(=O)c1cc(C)on1)C(=O)C(=O)NCc1ccccc1` (mixture of isomers) [Example 6, 5-Methyl-isoxazole-3-carboxylic acid {(S)-1-[(S)-1-((S)-1-benzylaminooxalyl-pentylcarbamoyl)-2-methoxy-ethylcarbamoyl]-ethyl}-amide], the half-maximal inhibitory concentration (IC50) (commonly the concentration at which inhibition is half-maximal) against β1c is more than 20000 nM; against β5c, 5520 nM; on β5i, 1040 nM; on β1i it was 949 nM; in the assay with β2c/2i, more than 20000 nM. Further, in assay [1], the EC50 (in general, the concentration needed to bring the measured effect to its halfway point) worked out at 13600 nM.
For the compound `CCCC[C@H](NC(=O)[C@H](CC(C)C)NC(=O)[C@@H](NC(=O)[C@H](Cc1ccccc1C)NC(C)=O)C(C)(C)C)C(=O)C(=O)NCc1ccccc1` [Example 1, (S)-3-{(S)-2-[(S)-2-((S)-2-Acetylamino-3-o-tolyl-propionylamino)-3,3-dimethyl-butyrylamino]-4-methyl-pentanoylamino}-2-oxo-heptanoic acid benzylamide], the IC50 against β1c is 3550 nM; at β5c it was 450 nM; at β5i, 146 nM; against β1i it was 910 nM; with β2c/2i, 10600 nM. This compound yielded a concentration giving a half-maximal response (EC50) in assay [1] of 2050 nM.
`CCCC[C@H](NC(=O)[C@H](CC(C)C)NC(=O)[C@@H](NC(=O)CN1CCOCC1)C(C)(C)C)C(=O)C(=O)NCc1ccccc1` [Example 2, (S)-3-{(S)-2-[(S)-3,3-Dimethyl-2-(2-morpholin-4-yl-acetylamino)-butyrylamino]-4-methyl-pentanoylamino}-2-oxo-heptanoic acid benzylamide]: the IC50 against β1c is 8700 nM; against β5c, 2430 nM; on β5i, 2080 nM; at β1i, 661 nM; with β2c/2i it was more than 20000 nM. In addition, the EC50 in assay [1] came to 12100 nM.
As for `CCCC[C@H](NC(=O)[C@H](Cc1ccc(OC)cc1)NC(=O)[C@H](C)NC(=O)CN1CCOCC1)C(=O)C(=O)NCc1ccccc1` [Example 3, (S)-3-{(S)-3-(4-Methoxy-phenyl)-2-[(S)-2-(2-morpholin-4-yl-acetylamino)-propionylamino]-propionylamino}-2-oxo-heptanoic acid benzylamide], the IC50 was more than 20000 nM against β1c; 3200 nM against β5c; 394 nM at β5i; 560 nM at β1i; more than 20000 nM with β2c/2i. The compound further came in with an EC50 in assay [1] of 7960 nM.
Regarding `CCCC[C@H](NC(=O)[C@H](Cc1c[nH]c2ccccc12)NC(=O)[C@H](C)NC(=O)c1cc(C)on1)C(=O)C(=O)NCc1ccccc1` [Example 4, 5-Methyl-isoxazole-3-carboxylic acid {(S)-1-[(S)-1-((S)-1-benzylaminooxalyl-pentylcarbamoyl)-2-(1H-indol-3-yl)-ethylcarbamoyl]-ethyl}-amide], the IC50 against β1c is 5700 nM; against β5c it was 763 nM; at β5i, 83 nM; against β1i, 91 nM; in the assay on β2c/2i, more than 20000 nM. In assay [1], this compound showed a concentration for a half-maximal effect (EC50) of 3910 nM.
`CCCC[C@H](NC(=O)[C@H](Cc1c[nH]c2ccccc12)NC(=O)[C@H](C)NC(=O)C1=C(C)c2ccccc2C1)C(=O)C(=O)NCc1ccccc1` [Example 5, 3-Methyl-1H-indene-2-carboxylic acid {(S)-1-[(S)-1-((S)-1-benzylaminooxalyl-pentylcarbamoyl)-2-(1H-indol-3-yl)-ethylcarbamoyl]-ethyl}-amide]: the IC50 was 3350 nM at β1c; 560 nM at β5c; 18 nM at β5i; 142 nM at β1i; more than 20000 nM in the assay with β2c/2i. The EC50 in assay [1] turned out to be 1220 nM.
Regarding `CCCC[C@H](NC(=O)[C@H](Cc1c[nH]c2ccccc12)NC(=O)[C@H](C)NC(=O)C1=C(C)c2ccccc2C1)C(=O)C(=O)N[C@@H](C)c1ccccc1` [Example 7], the IC50 on β1c was 13200 nM; against β5c it was 3050 nM; on β5i, 102 nM; against β1i it was 712 nM; in the assay with β2c/2i, more than 20000 nM. This compound also yielded a half-maximal effective concentration (EC50) in assay [1] of 4010 nM.
With `CCCC[C@H](NC(=O)[C@H](Cc1c[nH]c2ccccc12)NC(=O)[C@H](C)NC(=O)C1=C(C)c2ccccc2C1)C(=O)C(=O)N[C@H](C)c1ccccc1` [Example 8], the half-maximal inhibitory concentration (IC50) against β1c was 11100 nM; against β5c, 771 nM; at β5i it was 33 nM; against β1i it was 504 nM; with β2c/2i, more than 20000 nM. Besides, the EC50 in assay [1] was 1780 nM.
Turning to `CCCC[C@H](NC(=O)[C@H](Cc1c[nH]c2ccccc12)NC(=O)[C@H](C)NC(=O)OCc1ccccc1)C(=O)C(=O)NCc1ccccc1` [Example 9, {(S)-1-[(S)-1-((S)-1-Benzylaminooxalyl-pentylcarbamoyl)-2-(1H-indol-3-yl)-ethylcarbamoyl]-ethyl}-carbamic acid benzyl ester], the IC50 against β1c is more than 20000 nM; against β5c, 815 nM; at β5i, 26 nM; at β1i, 34 nM; in the assay on β2c/2i, more than 20000 nM. The compound also yielded an EC50 in assay [1] of 5290 nM.
For `CCCC[C@H](NC(=O)[C@H](Cc1c[nH]c2ccccc12)NC(=O)[C@H](C)NC(=O)CN1CCOCC1)C(=O)C(=O)NCc1ccccc1` [Example 10, (S)-3-{(S)-3-(1H-Indol-3-yl)-2-[(S)-2-(2-morpholin-4-yl-acetylamino)-propionylamino]-propionylamino}-2-oxo-heptanoic acid benzylamide], the IC50 at β1c was more than 20000 nM; at β5c, 1900 nM; at β5i, 709 nM; against β1i it was 275 nM; in the assay on β2c/2i, more than 20000 nM.
As for `CCCC[C@H](NC(=O)[C@H](Cc1c[nH]c2ccccc12)NC(=O)[C@H](C)NC(=O)C1Cc2ccccc2C1)C(=O)C(=O)NCc1ccccc1` [Example 11, Indan-2-carboxylic acid {(S)-1-[(S)-1-((S)-1-benzylaminooxalyl-pentylcarbamoyl)-2-(1H-indol-3-yl)-ethylcarbamoyl]-ethyl}-amide], the IC50 came to 2980 nM at β1c, 473 nM against β5c, 14 nM at β5i and 8040 nM in the assay with β2c/2i. In assay [1], this compound gave an EC50 of 1220 nM.
In the same order, the values of `CCCC[C@H](NC(=O)[C@H](Cc1c[nH]c2ccccc12)NC(=O)[C@H](C)NC(=O)c1cccc(Cl)c1Cl)C(=O)C(=O)NCc1ccccc1` [Example 12, N-{(S)-1-[(S)-1-((S)-1-Benzylaminooxalyl-pentylcarbamoyl)-2-(1H-indol-3-yl)-ethylcarbamoyl]-ethyl}-2,3-dichloro-benzamide] are 5430 nM, 381 nM, 36 nM, more than 20000 nM and 2610 nM.
In the same order, the values of `CCCC[C@H](NC(=O)[C@H](Cc1c[nH]c2ccccc12)NC(=O)[C@H](C)NC(=O)c1ccnn1C)C(=O)C(=O)NCc1ccccc1` [Example 13, 2-Methyl-2H-pyrazole-3-carboxylic acid {(S)-1-[(S)-1-((S)-1-benzylaminooxalyl-pentylcarbamoyl)-2-(1H-indol-3-yl)-ethylcarbamoyl]-ethyl}-amide] are 9560 nM, 2960 nM, 403 nM, more than 20000 nM and 3970 nM.

(Values after US20150274777A1, “KETOAMIDE IMMUNOPROTEASOME INHIBITORS” (HOFFMANN-LA ROCHE INC., priority 2012, published 2015).)
